In US7648711B2, “Dimethicone-containing sustained release injection formulation” (priority 2003, dated 2010):
Read-outs that look alike come from different tables or passages of the source.

Test: Solubility of therapeutic drugs in dimethicone
Assay type: physicochemical
Description: Thus, from the view point of bio-compatibility, dimethicone is suitable to be used as medium to prepare formulation for subcutaneous injection. […] Therefore, this will not pose any stability problem when using silicone as medium to prepare suspensions comprising the aforesaid drugs, which is one of the important factors usually affecting the sustained action of a long-lasting formulation. […] When hydrogenated castor oil used within the proper range (0.2% to 0.5%), the resulting liquid suspension is better in terms of stability, fluidibility, injectability and long-lasting releasing effect than the injection formulation prepared using water, vegetable oil or other organic liquid as the suspension medium. Hydrogenated castor oil functions as a suspending agent and enhances the effect of sustained releasing. In addition, when the formulation of the present invention is prepared by the micro powder crystallizing method, the presence of hydrogenated castor oil suppresses the growth of the crystal nucleus of active ingredients, whereby producing micro powder of active ingredients with a particle size of 20 micrometers or smaller. (4) By mixing the active ingredients with hydrogenated castor oil or with the-combination of hydrogenated castor oil and ethylcellulose to produce solid dispersion micro powder with particle size smaller than 300 micrometers, then dispersing the micro powder in silicone oil and grinding with a colloid mill or a ball mill, a long lasting release formulation containing solid dispersion of various particle sizes (from 10 micrometer to 150 micrometers) can be produced. Further, the sustained releasing effect of the formulation may be modified by adjusting the particle size of the solid dispersion and the proportion of hydrogenated castor oil relative to the active ingredients. For instance, sustained release formulations with various durations of effectiveness may be prepared as follows: mixing avermectins with hydrogenated castor oil to produce two solid dispersions with the avermectins to hydrogenated castor oil equal to 1:2 and 2:1, respectively, then mixing the two solid dispersions at a given ratio and dispersing the mixture in silicone oil, and producing the solid dispersion in the system with the particle size varying between 85 micrometers to 120 micrometers by controlling the extent of grinding. The formulation can provide an effective sustained releasing period up to 140 days following a single administration. Furthermore, the injection prepared by the above method has better injectability, stability and biocompatibility than water or vegetable oil based sustained release formulations for solid dispersion micro powder of avermectins/hydrogenated castor oil. Specifically, the formulation using water as medium has three disadvantages. First, it has difficulty to maintain an effective sustained releasing for more than 80 days. Second, it has poor injectability and, without adding more water soluble suspension assisting agents, solid suspension phase may “separate” from the water phase, causing injection failure due to blocking of the syringe needle. Third, it results in tissue lumps around the injection site. Other organic liquid based long-lasting formulations have similar problems.

Row | Compound | Solubility in dimethicone | Solubility in dimethicone (dimethicone)
1 | CO/N=C(\C(=O)N[C@@H]1C(=O)N2C(C(=O)O)=C(CSC(=O)c3ccco3)CS[C@H]12)c1csc(N)n1 [ceftiofur] | less than 0.01% | 
2 | O=C(NC(=O)c1c(F)cccc1F)Nc1ccc(Cl)cc1 [diflubenzuron] |  | less than 0.01%
3 | O=[N+]([O-])NC1=NCCN1Cc1ccc(Cl)nc1 [imidacloprid] | less than 0.01% | 
4 | CC1(C)S[C@@H]2[C@H](NC(=O)Cc3ccccc3)C(=O)N2[C@H]1C(=O)[O-].[K+] [penicillin G potassium salt] | less than 0.01% | 
5 | CC1(C)S[C@@H]2[C@H](NC(=O)Cc3ccccc3)C(=O)N2[C@H]1C(=O)[O-].[Na+] [penicillin G sodium salt] | less than 0.01% | 
